Columns and labels:
[1] = system: COS-7 cells expressing EGFP fused to 19 alanines (A19); experiment: Aggregate formation and abnormal cell nuclei in transiently transfected COS-7 cells expressing A19; format: cell-based, African green monkey; details: immunofluorescence; 48 hours after transfection; drug 15 hours
From the text: (§1) Mammalian expression vectors comprising EGFP (pEGFP-C1, Clontech) fused at its C-terminus with a Huntington's Disease gene exon 1 fragment with 74 polyglutamine repeats (Q74) or a polyalanine stretch of 19 repeats (A19) were used (Rankin, J. et al (2000) Biochem. J., 348, 15-19; Narain, Y. et al (1999) J. Med. Genet., 36, 739-746.). A Haemagglutinin-tagged Huntington's Disease gene exon 1 fragment with 74 polyglutamine repeats in pHM6 vector (Q74-HA) was also used. The PC12 stable lines expressing exon 1 of Huntington gene were as described in Wyttenbach A. et al., (2001) Hum. Mol. Genet. 10 1829-45.
(§2) African green monkey kidney cells (COS-7) were grown in Dulbecco's Modified Eagle Medium (DMEM, Sigma) supplemented with 10% Fetal Bovine Serum (FBS), 100 U/ml Penicillin/Streptomycin, 2 mM L-Glutamine and 1 mM Sodium Pyruvate at 37° C., 5% Carbon dioxide. The cells were grown on coverslips in six-well plates for immunofluorescence analysis, or were directly grown in six-well plates to 60-80% confluency for 24 hours for western blot analysis. Transfection was done using LipofectAMINE reagent (Invitrogen) using the manufacturer's protocol. The transfection mixture was replaced by normal culture medium after 5 hours incubation at 37° C. and the transfected cells were analysed by immunofluorescence or immunoblot 48 hours after transfection. The cells were left untreated or treated with 10 mM 3-methyl adenine (3-MA, Sigma), 0.5 mM N^6, N^6, Dimethyl adenosine (DMA, Sigma), 0.2 μg/ml Rapamycin (Sigma), 200 nM Bafilomycin A1 (BafA1, Sigma), 10 μM Lactacystin (Sigma) or 10 μM epoxomicin (Affinity research products ltd.) for 15 hours before fixation for immunofluorescence or processing for western blots. DMA, BafA1, epoxomicin and rapamycin were dissolved in DMSO and 3-MA and lactacystin were in water. Equal amounts of water or DMSO were added to the untreated controls, where relevant. The cells on coverslips were rinsed with 1×PBS, fixed with 4% paraformaldehyde in 1×PBS for 20 min and mounted in antifadent supplemented with 4′,6-diamidino-2-phenylindole (DAPI, 3 μg/ml, Sigma) to allow visualisation of nuclear morphology. The PC12 stable cells were maintained at 75 μg/ml hygromycin in standard medium consisting of high glucose DMEM (Sigma) with 100 U/ml penicillin/streptomycin, 2 mM L-glutamine (Invitrogen), 10% heat-inactivated horse serum (Invitrogen), 5% Tet-approved fetal bovine serum (FBS) (Clontech) and 100 μg/ml G418 (Invitrogen) at 37° C., 10% CO2. The cells were seeded at 1-2×10^5 per well in 6-well plates and were induced with 1 μg/ml doxycycline (Sigma) for 8 hours. The expression of transgenes was switched off by removing doxycycline from the medium. Cells were either left untreated or treated with 3-MA, BafA1, epoxomicin, lactacystin, rapamycin, 10 μg/ml cycloheximide (Sigma) or cycloheximide+rapamycin at the concentrations specified above for 24, 48 or 72 hours and the medium with the inhibitors/activator changed every 24 hours. The cells were then scraped off from the wells into 1.5 ml eppendorf tubes, pelleted at 8000 rpm and washed twice with 1×PBS. They were either fixed with 4% paraformaldehyde for 20 minutes and mounted in DAPI over coverslips on glass slides or processed for western blot analysis. CCI-779 was supplied by Wyeth Pharmaceuticals (Philadelphia). For tissue culture experiments, a stock solution of 1M in ethanol was prepared the day of experiment and was diluted in the appropriate medium
(§3) The pellets for westerns from COS-7 or PC12 cells were lysed on ice in Laemmli buffer (62.5 mM Tris-HCl pH6.8, 5% β-mercaptoethanol, 10% glycerol, and 0.01% bromophenol blue) for 30 min in the presence of protease inhibitors (Roche Diagnostics). The lysates were subjected to SDS-PAGE (10%) electrophoresis and proteins transferred onto nitrocellulose membrane (Amersham Pharmacia Biotech). […]

[2] = system: COS-7 cells expressing an exon 1 fragment of the HD gene with 74 glutamines (Q74); experiment: Aggregate formation and abnormal cell nuclei in transiently transfected COS-7 cells expressing Q74; format: cell-based, African green monkey; details: 48 hours after transfection
From the text: as §1, §2, §3

[3] = system: PC12 cell line expressing EGFP-tagged HD exon 1 with Q74; experiment: Turnover of Q74 protein and aggregates in stable doxycycline-inducible PC12 cells after switching expression off; format: cell-based, rat
Protocol: as §2
The pellets for westerns from COS-7 or PC12 cells were lysed on ice in Laemmli buffer (62.5 mM Tris-HCl pH6.8, 5% β-mercaptoethanol, 10% glycerol, and 0.01% bromophenol blue) for 30 min in the presence of protease inhibitors (Roche Diagnostics). The lysates were subjected to SDS-PAGE (10%) electrophoresis and proteins transferred onto nitrocellulose membrane (Amersham Pharmacia Biotech). The primary antibodies used include mouse monoclonal anti-GFP antibody (8362-1, Clontech) at 1:2000, rabbit monoclonal anti-actin antibody (A2066, Sigma) at 1:3000, mouse monoclonal anti-tubulin antibody (Clone DM 1A, Sigma) at 1:1000 and mouse monoclonal anti-HA antibody (Covance) at 1:1000. Blots were probed with Horse Radish Peroxidase (HRP) conjugated anti-mouse or anti-rabbit IgG (Bio Rad) at 1:2000. Bands were visualised using the ECL detection reagent (Amersham). […]

[4] = system: human wild-type, A30P and A53T α-synuclein; experiment: α-Synuclein degradation in inducible PC12 cell lines (western blot), all forms; format: cell-based
From the text: Human α-synuclein with a HA tag at the N-terminus and a 6His tag at the C-terminus was amplified from pHM6α-synuclein constructs (Furlong, R. A. et a; 1 (2000) Biochem. J. 346, 577581) and inserted into pTRE2 hyg vector (Clontech) using Nhe I/Sal I sites. Constructs were confirmed by sequencing before use. The pTRE2 hygα-synuclein construct and pTettTS (Clontech) were cotransfected into PC12 TetOn cells (Clontech), using Lipofectamine (Invitrogen) and Plus Reagent (Invitrogen). Single colonies were isolated using cloning cylinders (Sigma) and cells were grown and tested for α-synuclein expression upon induction. Cell lines were subjected to a further round of purification from single colonies to ensure that lines were pure.
PC12 cells were grown in Dulbecco's modified eagle's medium (DMEM, Sigma) supplemented with 10% horse serum (Sigma), 5% fetal bovine serum (Sigma), 100 U/ml penicillin/streptomycin, 2 mM L-glutamine, […] G418 (Invitrogen) and […] hygromycin B (Calbiochem) at 37° C., 10% CO2. To induce differentiation, cells were grown in media containing 1% horse serum and 100 ng/ml nerve growth factor (2.5S, Upstate Biotechnology) and incubated for about 5 days. Cells were induced to express synuclein with […] doxycycline (Sigma).
Cells were induced for 24 hours and then washed twice with media to remove doxycycline. Then cells were incubated in […] media containing either 10 mM 3-methyladenine (3MA, Sigma), 200 nM bafilomycin A1 (Sigma), […] rapamycin (Sigma), […] lactacystin (Sigma), […] epoxomicin (Affinity Research Products Ltd) or carrier controls (water or DMSO (Sigma)). 3MA and lactacystin were made up in water and rapamycin, epoxomicin and bafilomycin were dissolved in DMSO.
After 24 hours the media was replaced with fresh media plus drug and after a further 24 hours cell pellets were collected and stored at −80° C. until required.
Cell pellets were collected and stored at −80° C. until needed. Cells were lysed on ice in lysis buffer: 1% TritonX100, 20 mM TRIS pH7.5, 137 mM NaCl, 1 mM EGTA, 10% glycerol, 1.5 mM MgCl2 and protease inhibitor cocktail (Complete, Roche).
Samples were then mixed with loading buffer: 62.5 mM TRIS pH 6.8, 2% SDS, 10% glycerol, 0.05% bromophenol blue, 100 mM dithiothreitol and 700 mM β-mercaptoethanol and boiled before loading onto 14% denaturing polyacrylamide gels.
Each lane was loaded with protein from a similar number of cells, based on cell counting at the time of seeding. Proteins were transferred onto Hybond ECL nitrocellulose membrane (Amersham). α-Synuclein was detected with an antiHA monoclonal antibody (Covance) at 1:1000 dilution with 4-18 hours incubation. HRP conjugated antimouse antibody (Amersham) at 1:2000 dilution was then added to blots and antibody was detected using ECL blotting reagents (Amersham) and Hyperfilm ECL (Amersham). Blots were stripped and then reprobed for α-tubulin (Sigma) at 1:1000 dilution.
PC12 cell lines as described above (i.e. mitotic and neuronally differentiated wild-type, A53T and A30P PC12 lines) were induced for 24 hours, then doxycycline was removed and the drugs were added for 48 hours. The trends we observed were similar in cells treated with drugs for 24 and 72 hours.

CN(C)c1ncnc2c1ncn2[C@@H]1O[C@H](CO)[C@@H](O)[C@H]1O [DMA, N^6,N^6-dimethyladenosine]
appearance (size, number) of A19 aggregates in cells with aggregates [1]: Identical aggregate phenotypes | appearance (size, number) of Q74 aggregates in cells with aggregates ([2]; immunofluorescence, drug 15 hours): Identical aggregate phenotypes

C[C@@H]1C[C@@H]([C@H](O)CC2CC(=O)NC(=O)C2)C(=O)[C@@H](C)C1 [cycloheximide]
cell fluorescence (EGFP-Q74 clearance) ([3]; 8 h ON then 72 h OFF with drug, 0.2 μg/ml rapamycin, 10 μg/ml cycloheximide): increased | numbers of aggregate containing cells / visible aggregates ([3]; 8 h ON then 72 h OFF with drug, vs time-matched control): increased

CC(=O)N[C@@H](CSC(=O)[C@]1([C@@H](O)C(C)C)NC(=O)[C@H](C)[C@@H]1O)C(=O)O [lactacystin]
cell death or overt aggregate formation [4]: did not cause increased cell death or overt aggregate formation | α-synuclein levels ([4]; induced 24 hours, doxycycline removed, drug 48 hours, cycling and differentiated cells, 0.2 mg/ml rapamycin, 10 mM lactacystin, 10 mM epoxomicin [sic]): increase | proportions of Q74-expressing cells with aggregates ([2]; drug for 15 hours before fixing: 10 mM 3-MA, 0.5 mM DMA, 200 nM BafA1, 0.2 μg/ml rapamycin, 10 μM epoxomicin, 10 μM lactacystin, vs untreated): increases | number of aggregate-containing cells ([3]; 8 h ON then 48 h OFF with 10 μM epoxomicin or 10 μM lactacystin, vs control): increased Q74 aggregation

Source: patent US20070155771A1, “Methods and means for treating protein conformational disorders” (priority 2003, published 2007)
